Assay results as given in patent US10082496B2, “Targeting emopamil binding protein (EBP) with small molecules that induce an abnormal feedback response by lowering endogenous cholesterol biosynthesis” (Board of Regents of the University of Texas System, priority 2014, dated 2018).

Experiments:
[1] = tested on: HCT116 cells; experiment: Dose response studies in CRC line HCT116 (wt APC); assay type: cell-based; conditions: Homo sapiens, HCT-116; read-out: IC50 towards HCT116 cells
Text: These 14 compounds then were obtained commercially and their IC50 determined by performing dose response studies with half log dilution series at 12 concentration points in two authentic CRC lines: HCT116 (wt APC) and DLD1 (truncated APC). […] These two compounds served as initial lead compounds for analog development and for additional studies.

[2] = tested on: DLD1 tumors; experiment: DLD1 xenograft mouse model; assay type: in vivo; conditions: 40 mg/kg intraperitoneally twice daily for 18 days
[3] = tested on: colorectal tumors in CPC;Apc mice; experiment: CPC;Apc genetically engineered mouse model of colorectal tumors; conditions: in vivo
Experimental: These mice carry a CDX2P-NLS Cre recombinase transgene and a loxP-targeted Apc allele that deletes exon 14, leading to a frame shift at codon 580 and a truncated APC protein (Hinoi, T. et al. Mouse model of colonic adenoma-carcinoma progression based on somatic Apc inactivation. Cancer Res 67, 9721-9730 (2007)). […] Weights were measured every 15 days over the treatment period. These studies were performed according to the guidelines of the UT Southwestern Institutional Animal Care and Use Committee.

Compound: COc1ccc(S(=O)(=O)N2CCC(N3CCC(C)CC3)CC2)cc1 [TASIN-1]
- IC50 [1]: > 10 µM
- overt toxicity [2]: no overt toxicity
- toxicity in xenograft and genetically engineered CRC mouse models [3]: without noticeable toxicity
